Reference: BindingDB's records for doi:10.1016/j.ejmech.2019.01.017 (Qilu University of Technology (Shandong Academy of Sciences), 2019)

Molecular target: RAC-beta serine/threonine-protein kinase (Homo sapiens, UniProt P31751)
Test: Inhibition of PKBbeta (unknown origin)

Sequence of RAC-beta serine/threonine-protein kinase (P31751 whole entry): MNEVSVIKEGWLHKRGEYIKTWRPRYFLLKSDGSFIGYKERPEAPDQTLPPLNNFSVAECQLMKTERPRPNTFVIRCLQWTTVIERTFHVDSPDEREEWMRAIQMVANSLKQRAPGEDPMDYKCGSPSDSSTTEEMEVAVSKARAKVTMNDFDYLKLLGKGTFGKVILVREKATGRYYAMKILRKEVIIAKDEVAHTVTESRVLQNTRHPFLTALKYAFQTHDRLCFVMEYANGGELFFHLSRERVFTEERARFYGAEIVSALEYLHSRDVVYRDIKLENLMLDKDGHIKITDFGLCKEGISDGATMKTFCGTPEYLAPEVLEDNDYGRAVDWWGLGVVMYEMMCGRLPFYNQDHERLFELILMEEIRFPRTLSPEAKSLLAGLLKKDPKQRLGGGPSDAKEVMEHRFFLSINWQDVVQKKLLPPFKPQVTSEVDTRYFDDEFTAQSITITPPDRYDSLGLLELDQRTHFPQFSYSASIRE

IC50: 1640 nM
Structure (SMILES): Cc1ccc2[nH]c(=O)c(C(=O)/C=C/c3nc4ccccc4[nH]3)c(-c3ccccc3)c2c1
